In patent US20240076284A1, “NEW COMPOUNDS AND METHODS” (BENEVOLENTAI BIO LIMITED, priority 2020, published 2024):

Columns and labels:
MDR1 = biological target: T1, MDR1 (Homo sapiens, UniProt P08183); test: MDR1-MDCK effective efflux ratio; assay type: in vitro ADME; settings: MDR1-MDCK relative to wild-type MDCK, 1 μM, 60 minutes, pH 7.4
T1 construct: expressed in transfected cells; host or cells: MDCK (canine kidney) cells
Protocol: (§1) Wild-type MDCK, MDR1-MDCK and BCRP-MDCK cells were seeded into 24 well Transwell plates and cultured for 3 days to form monolayers. Test compound were prepared at 1 μM in Hanks' Balanced Salt Solution containing 25 mM HEPES and loaded into the donor compartments of Transwell plates bearing the cell monolayers (pH 7.4 for both donor and receiver compartments). Lucifer Yellow was added to the apical buffer in all wells to assess integrity of the cell monolayer. Duplicate wells were prepared and incubated at 37° C. in a CO2 incubator. Samples were removed at time zero and 60 minutes and test compound analysed by LC-MS/MS. Concentrations of Lucifer Yellow in the samples was measured using a fluorescence plate reader. The apparent permeability (Papp) values of test compound was determined for both the apical to basal (A>B) and basal to apical (B>A) permeation and the efflux ratio (B>A: A>B) determined in each cell line. The effective efflux ratio was determined from the ratio of either MDR1-MDCK cells or BCRP-MDCK cells relative to the ratio observed in wild-type cells. A higher value represent a better substrate for the efflux mechanism, which is less preferable.

[1] = biological target: T2, Ba/F3 cells expressing BCR-ABL (Homo sapiens, UniProt P00519); test: Ba/F3 CellTiter-Glo Assay; assay type: cell-based; settings: 48 h incubation, CellTiter-Glo luminescence
T2 construct: BCR (fusion partner, N-terminal portion of BCR); host or cells: Ba/F3 (murine pro-B cells); the other entry of the earlier key: BCR (P11274, Breakpoint cluster region protein)
T2 sequence (P00519 229-512 limits assumed): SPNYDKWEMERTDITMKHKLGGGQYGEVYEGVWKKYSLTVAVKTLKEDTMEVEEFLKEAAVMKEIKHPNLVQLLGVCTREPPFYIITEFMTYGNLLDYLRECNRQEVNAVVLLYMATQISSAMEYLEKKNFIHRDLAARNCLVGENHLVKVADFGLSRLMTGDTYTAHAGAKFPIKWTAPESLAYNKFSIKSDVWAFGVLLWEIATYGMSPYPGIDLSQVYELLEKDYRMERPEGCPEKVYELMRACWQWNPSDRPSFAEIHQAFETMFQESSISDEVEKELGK
Protocol: The CellTiter-Glo luminescent cell viability assay is a homogeneous method of determining the number of viable cells in culture based on quantification of the ATP present. Briefly, IL-3 dependent Ba/F3 cells are modified to express BCR-ABL. Activity of the transformed kinase overrides IL-3 dependency for cellular proliferation and survival. […] In this assay Ba/F3 cells expressing BCR-ABL (Advanced Cellular Dynamics) or parental Ba/F3 (control) cells were prepared at 5×10^4/mL in RPMI 1640 containing 10% FBS, 1×Glutamax and 750 ng/mL puromycin. Test compounds were dispensed into 384 well plates using the Tecan D300e at a top final assay concentration of 10 μM with dosing normalised to 0.1% DMSO in […]. 50 μL cells were added to each well of the prepared 384 well plates and the plates spun at 1000 rpm for 1 min prior to incubation at 37° C., 5% CO2 for 48 h. After 48 h 15 μL CellTiter-Glo reagent was added to each well in the plate. Following a 60 min incubation at rt luminescence was read on the Pherastar FS reader.

BCRP = biological target: T3, BCRP (Homo sapiens, UniProt Q9UNQ0); test: BCRP-MDCK effective efflux ratio; assay type: in vitro ADME; settings: BCRP-MDCK relative to wild-type MDCK, 1 μM, 60 minutes, pH 7.4
T3 construct: expressed in transfected cells; host or cells: MDCK (canine kidney) cells
T3 sequence (Q9UNQ0 1-655): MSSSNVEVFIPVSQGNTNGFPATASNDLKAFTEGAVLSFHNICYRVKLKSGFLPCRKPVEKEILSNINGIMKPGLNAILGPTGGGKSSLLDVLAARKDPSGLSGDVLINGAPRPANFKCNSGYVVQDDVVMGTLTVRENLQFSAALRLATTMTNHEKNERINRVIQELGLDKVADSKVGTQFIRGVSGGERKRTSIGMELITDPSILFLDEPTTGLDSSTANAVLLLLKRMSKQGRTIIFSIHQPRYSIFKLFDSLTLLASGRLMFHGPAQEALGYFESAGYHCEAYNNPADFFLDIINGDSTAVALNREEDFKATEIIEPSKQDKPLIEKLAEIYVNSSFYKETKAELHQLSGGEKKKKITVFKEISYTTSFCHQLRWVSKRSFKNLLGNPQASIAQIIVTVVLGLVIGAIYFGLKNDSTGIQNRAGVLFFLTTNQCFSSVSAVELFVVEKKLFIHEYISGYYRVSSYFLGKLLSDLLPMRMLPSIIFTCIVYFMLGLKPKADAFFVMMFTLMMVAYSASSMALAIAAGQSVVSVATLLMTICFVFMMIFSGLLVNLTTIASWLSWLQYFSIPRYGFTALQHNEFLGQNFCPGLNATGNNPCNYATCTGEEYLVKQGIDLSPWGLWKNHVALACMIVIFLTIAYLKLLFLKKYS
Protocol: as §1

[2] = Human microsomal stability; assay type: in vitro ADME; settings: human microsomes, first value of cell; NADPH, 37° C., up to 40 min
Protocol: (§2) This assay measures the metabolic stability of a given compound and predicts intrinsic liver clearance for various species. A quench plate is initially prepared which contains 400 μL MeCN and 25 ng/mL of internal standard. An aliquot of microsomes is defrosted and subsequently diluted with buffer. A solution of NADPH is made up fresh just before initialising the assay. 445 μL of microsome solution is added to the desired compound (5 μL in 10 μM DMSO) and the resulting solution mixed. The reaction is initiated by the addition of 50 μL of NADPH, a T0 sample is removed before the addition and quenched. The sample plate is kept at a constant 37° C. during the incubation. At pre-determined timepoints (2.5, 5, 10, 20 and 40 min) the incubation is mixed and 22.5 μL samples are transferred to quench plates. After completion of the time course, the quench plates are sealed and shaken for a minimum of 5 min, before centrifugation at 4000 rpm for 5 min. The supernatant is then subsequently transferred to a fresh plate and diluted 1:3 with MeOH/H2O. The plates are then heat sealed and analysed by a Water Acquity UPLC and a Waters TQ-S mass spectrometer. Waters MassLynx software is used for analysis using an MRM transition that has been previously generated from prior optimisation. After acquiring the data on the system the chromatograms are processed and checked using TargetLynx XS software and the raw data output is copied into a microsomal stability workbook. The workbook automatically populates and derives the CLint, t1/2 and scales the CLint values to generate Eh and predicted CL values. The analyst has the final workbook quality checked before the experiment is signed off.

Rat microsomal stability = assay type: in vitro ADME; settings: rat microsomes, second value of cell; NADPH, 37° C., up to 40 min
Protocol: as §2

T1 sequence (P08183 whole entry, species assumed): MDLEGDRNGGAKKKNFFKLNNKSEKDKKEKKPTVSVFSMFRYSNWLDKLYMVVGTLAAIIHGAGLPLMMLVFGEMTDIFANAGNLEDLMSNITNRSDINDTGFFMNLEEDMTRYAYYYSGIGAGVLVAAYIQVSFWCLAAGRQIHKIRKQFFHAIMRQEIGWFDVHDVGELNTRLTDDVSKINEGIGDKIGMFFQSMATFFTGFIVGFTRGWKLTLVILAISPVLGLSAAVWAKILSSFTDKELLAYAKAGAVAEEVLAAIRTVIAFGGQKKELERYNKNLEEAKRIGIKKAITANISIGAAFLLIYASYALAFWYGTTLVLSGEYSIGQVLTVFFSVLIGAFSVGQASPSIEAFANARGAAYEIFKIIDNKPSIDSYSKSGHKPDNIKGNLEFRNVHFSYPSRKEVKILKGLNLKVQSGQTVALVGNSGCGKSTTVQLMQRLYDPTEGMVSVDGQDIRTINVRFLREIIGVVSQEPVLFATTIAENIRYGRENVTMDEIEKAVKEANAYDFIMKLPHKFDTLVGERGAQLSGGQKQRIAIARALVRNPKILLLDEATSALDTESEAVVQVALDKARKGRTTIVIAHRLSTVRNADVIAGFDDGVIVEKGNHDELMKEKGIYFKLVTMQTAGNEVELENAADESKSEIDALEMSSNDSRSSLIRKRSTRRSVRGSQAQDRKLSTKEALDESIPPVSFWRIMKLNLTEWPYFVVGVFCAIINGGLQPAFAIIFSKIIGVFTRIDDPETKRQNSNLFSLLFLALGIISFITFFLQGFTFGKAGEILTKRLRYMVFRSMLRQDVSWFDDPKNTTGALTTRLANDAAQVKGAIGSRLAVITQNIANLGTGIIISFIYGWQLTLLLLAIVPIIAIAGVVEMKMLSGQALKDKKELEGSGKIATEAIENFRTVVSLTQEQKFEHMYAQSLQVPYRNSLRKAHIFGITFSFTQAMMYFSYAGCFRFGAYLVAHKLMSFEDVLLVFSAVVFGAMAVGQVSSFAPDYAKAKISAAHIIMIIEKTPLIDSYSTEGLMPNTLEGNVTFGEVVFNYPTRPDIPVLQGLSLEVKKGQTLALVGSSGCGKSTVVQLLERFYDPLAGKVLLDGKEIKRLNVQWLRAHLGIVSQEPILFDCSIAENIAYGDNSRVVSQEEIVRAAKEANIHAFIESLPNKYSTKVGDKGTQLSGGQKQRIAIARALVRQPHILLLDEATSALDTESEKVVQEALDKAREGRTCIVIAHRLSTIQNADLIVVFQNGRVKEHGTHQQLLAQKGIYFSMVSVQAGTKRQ

Row | MDCK MDR1 EER (MDR1) | IC50 [1] [nM] | MDCK BCRP EER (BCRP) | Microsomal stability (human/rat) Eh [2] | Microsomal stability (human/rat) Eh (Rat microsomal stability) | Compound
1 | 6.5 |  | 1.8 | 0.96 | 0.99 | Cc1ccc(C(=O)Nc2cc(CN3CCOCC3)cc(C(F)(F)F)c2)cc1-n1cc(-c2cccnc2)cn1 [Comparative example 2, 4-Methyl-N-[3-(morpholinomethyl)-5-(trifluoromethyl)phenyl]-3-[4-(3-pyridyl)pyrazol-1-yl]benzamide, reference compound]
2 | 15.8 |  | 5.0 |  |  | Cc1ccc(C(=O)Nc2cc(C(F)(F)F)c(CN3CCN(C)CC3)cn2)cc1-n1cc(-c2cccnc2)cn1 [compound 6, 4-Methyl-N-[5-[(4-methylpiperazin-1-yl)methyl]-4-(trifluoromethyl)-2-pyridyl]-3-[4-(3-pyridyl)pyrazol-1-yl]benzamide, reference compound]
3 |  | 2710 |  |  |  | Cc1ccc(C(=O)Nc2cc(C(F)(F)F)ccn2)cc1-n1ccc(-c2cccnc2)n1 [Comparative example 4, 4-Methyl-3-[3-(3-pyridyl)pyrazol-1-yl]-N-[4-(trifluoromethyl)-2-pyridyl]benzamide, reference compound]
4 | 1.1 | 54 | 1.0 |  |  | CNc1ncc(-c2cnn(-c3cc(C(=O)Nc4cc(C(F)(F)F)ccn4)ccc3C)c2)cn1 [Example 5, 4-Methyl-3-[4-[2-(methylamino)pyrimidin-5-yl]pyrazol-1-yl]-N-[4-(trifluoromethyl)-2-pyridyl]benzamide]
5 | 1.2 | 32 | 0.8 |  |  | Cc1cncc(-c2cnn(-c3cc(C(=O)Nc4cc(C(F)(F)F)ccn4)ccc3C)c2)c1 [Example 7]

More lines, now with the values behind:

Row | Compound | MDCK MDR1 EER (MDR1) | IC50 [1] [nM] | MDCK BCRP EER (BCRP) | Microsomal stability (human/rat) Eh [2] | Microsomal stability (human/rat) Eh (Rat microsomal stability)
6 | Cc1ccc(C(=O)Nc2cc(C(F)(F)F)ccn2)cc1-n1cc(-c2cncnc2)cn1 [Example 3, 4-Methyl-3-(4-pyrimidin-5-ylpyrazol-1-yl)-N-[4-(trifluoromethyl)-2-pyridyl]benzamide] | 1.0 | 25 | 1.0 | 0.56 | 0.44
7 | Cc1ccc(C(=O)Nc2cc(C(F)(F)F)cnn2)cc1-n1cc(-c2cccnc2)nn1 [compound 3, 4-Methyl-3-[4-(3-pyridyl)triazol-1-yl]-N-[5-(trifluoromethyl)pyridazin-3-yl]benzamide, reference compound] | 9.8 |  | 8.5 |  | 
8 | Cc1ccc(C(=O)Nc2cc(C(F)(F)F)ccn2)cc1-n1cc(-c2cncc(F)c2)cn1 [Example 8, 3-[4-(5-Fluoropyridin-3-yl)-1H-pyrazol-1-yl]-4-methyl-N-[4-(trifluoromethyl)pyridin-2-yl]benzamide] | 1.6 | 29 | 1.1 |  | 
9 | Cc1ccc(C(=O)Nc2cc(C(F)(F)F)cc(C#N)n2)cc1-n1cc(-c2cccnc2)cn1 [Example 10, N-[6-cyano-4-(trifluoromethyl)pyridin-2-yl]-4-methyl-3-[4-(pyridin-3-yl)-1H-pyrazol-1-yl]benzamide] |  | 18 |  | 0.70 | 0.65
10 | Cc1ccc(C(=O)Nc2ccc(CN3CCN(C)CC3)c(C(F)(F)F)c2)cc1-n1cc(-c2cnc(N)nc2)nn1 [compound 5, 3-[4-(2-aminopyrimidin-5-yl)triazol-1-yl]-4-methyl-N-[4-[(4-methylpiperazin-1-yl)methyl]-3-(trifluoromethyl)phenyl]benzamide, reference compound] | 4.3 |  | 2.1 |  | 
11 | Cc1ccc(C(=O)Nc2cc(CN3CCCC3)cc(C(F)(F)F)c2)cc1-n1cc(-c2cccnc2)cn1 [Comparative example 1, 4-Methyl-3-[4-(3-pyridyl)pyrazol-1-yl]-N-[3-(pyrrolidin-1-ylmethyl)-5-(trifluoromethyl)phenyl]benzamide, reference compound] |  |  |  | 0.81 | 0.93
12 | Cc1ccc(C(=O)Nc2cc(C(F)(F)F)ccn2)cc1-n1cc(-c2cnn(C)c2C)cn1 [Example 4, 3-[4-(1,5-Dimethylpyrazol-4-yl)pyrazol-1-yl]-4-methyl-N-[4-(trifluoromethyl)-2-pyridyl]benzamide] | 1.2 | 72 | 1.3 | < 0.44 | 0.60
13 | Cc1ccc(C(=O)Nc2cc(C(F)(F)F)ccn2)cc1-n1cc(-c2cncc(N3CCN(C)CC3)c2)cn1 [Example 6, 4-Methyl-3-[4-[5-(4-methylpiperazin-1-yl)-3-pyridyl]pyrazol-1-yl]-N-[4-(trifluoromethyl)-2-pyridyl]benzamide] |  | 83 |  |  | 
14 | COc1cncc(-c2cnn(-c3cc(C(=O)Nc4cc(C(F)(F)F)ccn4)ccc3C)c2)c1 [Example 9, 3-[4-(5-methoxypyridin-3-yl)-1H-pyrazol-1-yl]-4-methyl-N-[4-(trifluoromethyl)pyridin-2-yl]benzamide] | 1.2 | 28 | 1.1 |  | 
15 | Cc1ccc(C(=O)Nc2cc(C(F)(F)F)cnn2)cc1-n1cc(-c2cccnc2)cn1 [Example 2, 4-Methyl-3-[4-(3-pyridyl)pyrazol-1-yl]-N-[5-(trifluoromethyl)pyridazin-3-yl]benzamide] | 2.9 | 40 | 1.5 | 0.56 | 0.67
